Details of data set [1]: method as in PMID 23962079. The settings on record: after intravenous injection; cited from earlier work.
For data set [2], the target named is T1, hGlyT2 (Homo sapiens, UniProt Q9Y345).
T1 construct: host or cells: HEK293 cells stably expressing hGlyT2; crude membrane fractions
T1 sequence (Q9Y345 1-797): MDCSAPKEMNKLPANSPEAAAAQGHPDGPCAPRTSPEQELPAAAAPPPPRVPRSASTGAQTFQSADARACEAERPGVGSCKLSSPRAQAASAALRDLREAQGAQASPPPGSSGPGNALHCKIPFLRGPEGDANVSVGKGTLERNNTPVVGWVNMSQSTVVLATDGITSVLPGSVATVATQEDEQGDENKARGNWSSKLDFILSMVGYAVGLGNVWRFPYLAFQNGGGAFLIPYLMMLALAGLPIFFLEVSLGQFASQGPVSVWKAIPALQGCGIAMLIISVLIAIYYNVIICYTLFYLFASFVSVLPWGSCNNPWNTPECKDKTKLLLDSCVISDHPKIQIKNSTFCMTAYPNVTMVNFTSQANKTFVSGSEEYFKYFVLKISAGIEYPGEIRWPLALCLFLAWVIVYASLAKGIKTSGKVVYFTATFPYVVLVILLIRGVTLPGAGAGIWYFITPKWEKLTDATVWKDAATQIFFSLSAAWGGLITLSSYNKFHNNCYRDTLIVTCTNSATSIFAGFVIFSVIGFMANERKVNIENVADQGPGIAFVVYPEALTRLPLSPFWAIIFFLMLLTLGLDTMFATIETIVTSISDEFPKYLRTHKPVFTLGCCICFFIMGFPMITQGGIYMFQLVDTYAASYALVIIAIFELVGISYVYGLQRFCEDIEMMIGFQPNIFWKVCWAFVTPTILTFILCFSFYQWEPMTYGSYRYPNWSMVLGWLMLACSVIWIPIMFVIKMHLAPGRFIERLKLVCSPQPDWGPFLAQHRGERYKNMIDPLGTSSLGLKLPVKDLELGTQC
Nature of the data set: GlyT2 MS Binding Assays: competition experiments with Org25543 as reporter ligand. As for the experimental part: For the development of the desired competitive MS Binding Assay, the general concept of this kind of binding experiments was followed, in which the affinity of a test compound is delineated from its potency to compete out a reporter ligand, in our case Org25543, from its target binding site. Accordingly, the target protein was incubated with a defined concentration of the reporter ligand and increasing concentration of the individual test compound. In detail, the competitors were studied at seven different concentration levels, which covered about three concentration log units, whereas the concentration of Org25543 was fixed to 10 nM. Thereafter, via the developed LC‐ESI‐MS/MS method the amount of bound marker (total binding) was determined for the samples obtained from the individual incubation mixtures by the common workup for MS Binding Assays. Nonspecific binding was again determined in a set of analogous experiments in which GlyT2 membrane fractions were replaced by material subjected to a heat‐shock before. The resulting amount of Org25543 binding was defined as 0 % level of specific reporter ligand binding. […] The thus determined IC50 values were finally used to calculate the corresponding K i values by means of the Cheng‐Prusoff equation.
For preparation of GlyT2 membrane preparations HEK293 cells, stably expressing the hGlyT2 with a confluence ≥90 %, were used (kindly provided by AbbVie (Wiesbaden, Germany)). As cell culture medium DMEM containing 10 % fetal bovine serum (m/v), 100 U mL^−1 penicillin, 100 μg mL^−1 streptomycin and […] hygromycin B was used and the cells were cultivated in dishes (143 cm^2) at 37 °C and 8 % CO2. The cells were detached from the dish by aspirating the medium, adding 12 mL cell culture medium without hygromycin B and pipetting the medium several times until the cell lawn was completely detached. Subsequently, the cells were washed twice with PBS (5 min, 1600 rpm, Biofuge Stratos, rotor: #3047, Heraeus, Hanau, Germany) and afterwards homogenized in incubation buffer (10 mM HEPES, 120 mM NaCl, 2 mM KCl, 1 mM MgCl2, 1 mM CaCl2, pH 7.5) using a Polytron PTA 10 S (Kinematica Polytron, Littau‐Luzern, Switzerland). After homogenization aliquots of about 1 mg protein were frozen and stored at −80 °C. To determine the amount of protein in the membrane preparation (after treatment with 100 mM NaOH for 1 h) the protein determination according to Bradford ^[63] was applied, using bovine serum albumin as standard for calibration. At the day of the assay the membrane preparation was rapidly thawed, diluted in 20 mL incubation buffer and centrifuged at 4 °C for 20 min at 20 500 rpm (Sorvall Evolution RC, rotor: SS34, Thermo. Electron, Hanau, Germany). Finally, the resulting pellet was resuspended in 6 mL incubation buffer yielding a protein concentration of ∼0.1–0.2 mg mL^−1.
In polypropylene 96‐well plates (1.2 mL well volume, Sarstedt) membrane preparations (∼5–10 μg protein) were incubated in the presence of the reporter ligand and, if required, test compounds in incubation buffer (10 mM HEPES, 120 mM NaCl, 2 mM KCl, 1 mM MgCl2, 1 mM CaCl2, pH 7.5) in a total volume of 250 μL at 37 °C in a Julabo SW‐20 C water bath (Julabo GmbH, Seelbach, Germany) for 1 h (every sample was prepared in triplicates). After the incubation 210 μL aliquots of the binding samples were transferred by means of a 12‐channel pipette onto 96‐well glass fiber filter plates (AcroPrep Advance, glass fiber, 1.0 μm, 350 μL; Pall Corporation, Port Washington, NY, USA) where the incubation was terminated by vacuum filtration (the samples were transferred and the incubation was terminated row after row; Multi Well Plate Vacuum Manifold, Pall, Dreieich, Germany).

Data set [3] relates to GlyT2. As to conditions: cited from earlier work; for IC50: read-out: Biological activity, IC50 (literature); for pIC50 (literature; calcd): calcd from literature IC50.
The target in data set [4] is T2, GlyT2 (Homo sapiens, UniProt Q9Y345).
T2 construct: host or cells: HEK293 cells stably expressing hGlyT2; crude membrane fractions
T2 sequence (Q9Y345 1-797): T1 sequence (Q9Y345 1-797)
The data set is described as follows: influence of DMA on binding of Org25543 towards GlyT2 in competition experiments. The settings on record: DMA as competitor, up to a concentration of 2 % (215 mM). How it is done:
Investigating adsorption of Org25543 to polypropylene container material To investigate the adsorption ability of Org25543 to polypropylene container material dilution series of Org25543 were prepared in reaction tubes (1.5 mL, PP, Sarstedt, Nümbrecht, Germany) using different solvents or solvent mixtures, respectively (H2O, acetonitrile, H2O/DMSO (80:20, v/v), H2O/N,N-dimethylacetamide (DMA; 80:20, 90:10 and 95:5 v/v)). At least five concentration levels (10-fold concentration; 10 nM – 625 pM) were prepared in each solvent and these concentration levels were diluted again 1:10 (final concentrations of Org25543: 1 nM – 62.5 pM) in a mixture of ammonium bicarbonate buffer (5 mM, pH7.8) and acetonitrile containing 111 pM [2H7]Org25543 (final concentration: 100 pM) that the final sample solvent equals the mobile phase.
Then the samples were subjected to LC-ESI-MS/MS quantification and the obtained peak area ratios of Org25543 and [ 2H7]Org25543 were plotted against the concentration of Org25543. By using linear regression analysis calibration curves were obtained for all dilution series and were compared to each other. The calibration curves are depicted in Figure S 4.
Investigating the influence of N,N-dimethylacetamide (DMA) on the binding of Org25543 towards GlyT2 in competition experiments […]

The conditions of data set [5]: cited from earlier work.
The test system of data set [6] is GlyT2. As to conditions: ref 23; read-out: IC50 in [3H]glycine uptake assay; cited from earlier work.
Setting [7] is: read-out: Affinity, pKi (GlyT2 MS Binding Assays) (converted).

“Also recorded” adds a separate entry of the source. Read-outs that look alike come from different tables or passages of the source. Some results are limits rather than exact numbers.

For `N[C@@H](COC(c1cccc(F)c1)c1ccccc1OCc1ccccc1)C(=O)O` (stereo partly shown) [ALX1393, O‐[(2‐benzyloxyphenyl‐3‐flurophenyl)methyl]‐L‐serine], the “fraction crossing the blood‐brain‐barrier” value in data set [1] is 5%. The Ki in data set [2] (setting [7]) was 1170 nM. The IC50 in data set [3] (ref 11, 40) is 26 to 100 nM.

In the case of `CC(=O)N(C)C` [DMA, N,N‐dimethylacetamide], the “influence on Org25543 binding at GlyT2, in words” value in data set [4] is given as “no influence on the Org25543 binding at GlyT2; also recorded: not effect Org25543 binding”.

Turning to `CCCCC/C=C\C/C=C\C/C=C\C/C=C\CCCC(=O)NCC(=O)O` [N‐arachidonylglycine, N‐(1‐oxo‐(5Z,8Z,11Z,14Z)‐eicosatetraenyl)glycine], the Ki in data set [2] was 3980 nM. Also, the “critical micelle concentration (CMC)” value in data set [5] (ref 61) is more than 100 µM. For the same molecule, in data set [3] (ref 52), the “pIC50 (literature; calcd)” value is given as 5.29 and the IC50 is 5100 ± 3100 nM.

Consider `COc1cc(C(=O)NCC2(N(C)C)CCCCC2)cc(OC)c1OCc1ccccc1` [compound 8], for which the IC50 was 84 nM in data set [6] and 84 ± 3 nM in data set [3] (ref 23). The Ki in data set [2] (setting [7]) is 41.7 nM. Moreover, the “pIC50 (literature; calcd)” value in data set [3] (ref 23) is recorded as 7.08.

For the molecule `CCCCCCCC/C=C\CCCCCCCC(=O)O[C@H](CC(=O)[O-])C[N+](C)(C)C` [oleoyl‐L‐carnitine, Oleoyl‐L‐carnitine], the Ki in data set [2] (setting [7]) was 2630 nM. For the same molecule, the “critical micelle concentration (CMC)” value in data set [5] (ref 18) is 7.4 µM. Moreover, in data set [3] (ref 18), the “pIC50 (literature; calcd)” value is 6.47 and the IC50 is 340 nM.

Usually IC50 stands for the concentration that inhibits the measured activity by half.

Values taken from PMC7821181, “MS Binding Assays for Glycine Transporter 2 (GlyT2) Employing Org25543 as Reporter Ligand” (Chemmedchem, 2020).
